Measured values: publication PMC8611036, “An integrated method for optimized identification of effective natural inhibitors against SARS-CoV-2 3CLpro” (Scientific Reports, 2021)
Read-outs that look alike come from different tables or passages of the source. Residues, ends and D or L forms follow the SMILES beside them.

What was measured:
SARS-CoV 3CLpro [1] = type: biochemical
SARS-CoV-2 3CLpro = SARS-CoV-2 3CLpro (Severe acute respiratory syndrome coronavirus 2, UniProt P0DTD1); details: SARS-CoV pIC50 multiplied by similarity index (SI), training set compounds
SARS-CoV 3CLpro [2] = details: SARS-CoV 3CLpro inhibitors (training set), ref: per compound, cited from earlier work; for pIC50: from literature IC50; for IC50: literature values
[3] = activity class by pIC50 threshold 6

| Structure (SMILES) | Inact.(<6)/Act.(>=6) (SARS-CoV 3CLpro [1]; [3]) | other results |
| --- | --- | --- |
| CCOC(=O)C(=CNc1ccc(S(=O)(=O)c2ccc(/N=C/C(C(=O)OCC)=C(\O)OCC)cc2)cc1)C(=O)OCC [CMP139] | Inact. (Inact.(<6)) | SI*pIC50 (SARS-CoV-2 3CLpro): 4.6468; pIC50 (SARS-CoV 3CLpro [2]): 4.495; IC50 (SARS-CoV 3CLpro [2]): 32 µM |
| C=C(N[C@@H](CC(C)C)C(=O)N[C@@H](CC1CCNC1=O)C(=O)Cn1[nH]c(=O)c2c([N+](=O)[O-])cccc2c1=O)[C@@H](NC(=O)[C@H](C)NC(=O)O)[C@@H](C)OCc1ccccc1 (stereo partly shown) [CMP101] | Act. (Act.(>=6)) | SI*pIC50 (SARS-CoV-2 3CLpro): 6.374; pIC50 (SARS-CoV 3CLpro [2]): 6.222; IC50 (SARS-CoV 3CLpro [2]): 0.6 µM |
| Nc1ncc(S(=O)(=O)c2ccc(Cl)cc2)c(N)n1 [CMP141] | Inact. (Inact.(<6)) | SI*pIC50 (SARS-CoV-2 3CLpro): 5.374; pIC50 (SARS-CoV 3CLpro [2]): 5.222; IC50 (SARS-CoV 3CLpro [2]): 6 µM |
| CC(C)c1cc2c(cc1O)[C@@]1(C)CCCC(C)(C)[C@@H]1CC2 [CMP132] | Inact. (Inact.(<6)) | SI*pIC50 (SARS-CoV-2 3CLpro): 4.457; pIC50 (SARS-CoV 3CLpro [2]): 4.305; IC50 (SARS-CoV 3CLpro [2]): 49.6 µM |
| CCOC(=O)/C=C/[C@H](C[C@@H]1CCNC1=O)NC(=O)[C@H](CC=C(C)C)CC(=O)[C@@H](NC(=O)c1cc(C)on1)C(C)C [CMP160] | Inact. (Inact.(<6)) | SI*pIC50 (SARS-CoV-2 3CLpro): 4.307; pIC50 (SARS-CoV 3CLpro [2]): 4.1549; IC50 (SARS-CoV 3CLpro [2]): 70 µM |
| O=C(Oc1cncc(Cl)c1)c1cc2ccccc2oc1=O [CMP162] | Act. (Act.(>=6)) | SI*pIC50 (SARS-CoV-2 3CLpro): 7.11; pIC50 (SARS-CoV 3CLpro [2]): 6.959; IC50 (SARS-CoV 3CLpro [2]): 0.11 µM |
| O=C1C(=O)N(C/C=C/c2cc3ccccc3s2)c2ccc(I)cc21 [CMP98] | – | SI*pIC50 (SARS-CoV-2 3CLpro): 4.781 |
| Cc1ccc(C(=O)N/C(=C\c2ccc(-c3ccccc3[N+](=O)[O-])o2)C(=O)NCCCN(C)C)cc1 [CMP284] | Inact. (Inact.(<6)) | – |
| O=C(Cn1nnc2ccccc21)N(Cc1ccsc1)c1ccc(-c2ccncc2)cc1 [CMP226] | Inact. (Inact.(<6)) | – |
| CC(C)c1cc2c(cc1O)[C@@]1(C)CCC[C@@](C)(C=O)[C@@H]1CC2 [CMP208] | Inact. (Inact.(<6)) | – |
| CNc1ccc(N(Cc2ccsc2)C(=O)Cn2nnc3ccccc32)cc1 [CMP223] | Inact. (Inact.(<6)) | – |
| Cc1csc(SSc2ccccc2[N+](=O)[O-])n1 [CMP267] | Inact. (Inact.(<6)) | – |
| CC(C)(C)NC(=O)C(c1ccsc1)N(C(=O)Cn1nnc2ccccc21)c1ccc(NC(=O)C2CC2)cc1 (stereo not shown) [CMP191] | Inact. (Inact.(<6)) | – |
| Cc1cc(S(=O)(=O)c2c([N+](=O)[O-])cc(C(F)(F)F)cc2[N+](=O)[O-])c(Cl)cc1Cl [CMP288] | Act. (Act.(>=6)) | – |
| O=C(Cn1nnc2ccccc21)N(Cc1ccsc1)c1ccc(-c2cccnc2)cc1 [CMP224] | Act. (Act.(>=6)) | – |
| CC(=O)Nc1cnc(SSc2ccccc2[N+](=O)[O-])s1 [CMP271] | Inact. (Inact.(<6)) | – |
| Cc1nnc(SSc2ccccc2[N+](=O)[O-])o1 [CMP273] | Inact. (Inact.(<6)) | – |
| O=C(Oc1cncc(Cl)c1)c1ccc(-c2ccc([N+](=O)[O-])cc2)o1 [CMP282] | Act. (Act.(>=6)) | – |
| CC1CC(C)CN(S(=O)(=O)c2ccc3c(c2)C(=O)C(=O)N3C)C1 (stereo not shown) [CMP250] | Inact. (Inact.(<6)) | – |
| COC(=O)c1nc(SSc2ccccc2[N+](=O)[O-])[nH]c1C [CMP269] | Inact. (Inact.(<6)) | – |
| COC(=O)[C@]1(C)CC[C@]2(C)CC[C@]3(C)C4=CC=C5C(=CC(=O)C(O)=C5C)[C@]4(C)CC[C@@]3(C)[C@@H]2C1 [CMP128] | – | Inact.(<6)/Act.(>=6) (SARS-CoV 3CLpro [1]): Inact. (key: Inact.(<6); Act.(>=6)) |

| Structure (SMILES) | Inact.(<6)/Act.(>=6) (SARS-CoV 3CLpro [1]; [3]) | other results |
| --- | --- | --- |
| O=c1c(O)c(-c2ccc(O)c(O)c2)oc2cc(O)cc(O)c12 [CMP151] | Inact. (Inact.(<6)) | – |
| O=C(Nc1ccc(N(Cc2ccsc2)C(=O)Cn2nnc3ccccc32)cc1)C1CC1 [CMP195] | Inact. (Inact.(<6)) | – |
| O=C[C@H](Cc1c[nH]cn1)NC[C@@H]1C[C@H]2CCCC[C@@H]2CN1C(=O)c1ccc(F)cc1 [CMP258] | Inact. (Inact.(<6)) | – |
| CC(C)COC(=O)Nc1ccc(N(Cc2ccsc2)C(=O)Cn2nnc3ccccc32)cc1 [CMP199] | Inact. (Inact.(<6)) | – |
| CC1CCN(S(=O)(=O)c2ccc3c(c2)C(=O)C(=O)N3Cc2ccccc2)CC1 [CMP248] | Inact. (Inact.(<6)) | – |
| CN1C(=O)C(=O)c2cc(S(=O)(=O)N3CCN(CCc4ccccc4)CC3)ccc21 [CMP244] | Inact. (Inact.(<6)) | – |
| CC(C)(C)NC(=O)C(c1cccnc1)N(C(=O)c1cccs1)c1ccc(C(C)(C)C)cc1 (stereo not shown) [CMP189] | Inact. (Inact.(<6)) | SI*pIC50 (SARS-CoV-2 3CLpro): 4.453 |
| O=C[C@H](Cc1c[nH]cn1)NC[C@@H]1C[C@H]2CCCC[C@@H]2CN1C(=O)c1ccccc1 [CMP262] | Inact. (Inact.(<6)) | – |
| O=[N+]([O-])c1ccccc1SSc1ncccn1 [CMP270] | Act. (Act.(>=6)) | – |
| O=C[C@H](Cc1cnc[nH]1)NC[C@H]1C[C@@H]2CCCC[C@H]2CN1C(=O)c1ccc(-c2ccccc2)cc1 [CMP257] | Inact. (Inact.(<6)) | – |
| O=C(Oc1cncc(Cl)c1)c1ccc(Cl)cc1 [CMP165] | Act. (Act.(>=6)) | – |
| COC(=O)c1nc(SSc2ccc(Cl)cc2)[nH]c1C [CMP268] | Inact. (Inact.(<6)) | – |
| COc1ccc(-c2cc(=O)c3c(O)cc(O)cc3o2)cc1-c1c(O)cc(O)c2c(=O)cc(-c3ccc(O)cc3)oc12 [CMP157] | Inact. (Inact.(<6)) | – |
| CC(C)C(=O)Nc1ccc(N(Cc2ccsc2)C(=O)Cn2nnc3ccccc32)cc1 [CMP198] | Inact. (Inact.(<6)) | – |
| CCC(C)(C)NC(=O)[C@@H](c1ccn(C)c1)N(C(=O)Cn1nnc2ccccc21)c1ccc(NC(C)=O)cc1 [CMP254] | Inact. (Inact.(<6)) | – |
| O=C(Oc1cncc(Cl)c1)c1ccc(-c2ccc(Cl)cc2[N+](=O)[O-])o1 [CMP280] | Act. (Act.(>=6)) | – |
| O=C(Nc1ccc(Cl)cc1)c1ccc(CN2C(=O)C(=O)c3cc(I)ccc32)s1 [CMP99] | – | SI*pIC50 (SARS-CoV-2 3CLpro): 5.052 |
| O=C[C@H](Cc1c[nH]cn1)NC[C@@H]1C[C@H]2CCCC[C@@H]2CN1C(=O)c1cccc(-c2ccccc2)c1 [CMP260] | Inact. (Inact.(<6)) | – |
| O=C(Oc1cncc(Br)c1)c1cccs1 [CMP232] | Act. (Act.(>=6)) | – |
| O=C[C@H](Cc1cnc[nH]1)NC[C@@H]1C[C@H]2CCCC[C@@H]2CN1C(=O)c1ccc(-c2ccccc2)cc1 [CMP259] | Inact. (Inact.(<6)) | – |
| CC(C)C[C@H](NC(=O)[C@@H](NC(=O)[C@H](C)NC(=O)[C@H](CO)NC(=O)[C@@H](NC(=O)OCc1ccccc1)[C@@H](C)O)C(C)C)C(=O)N[C@H](C#N)CCC(N)=O [CMP231] (HELM PEPTIDE1{[O=C(OCc1ccccc1)[*:2]].T.S.A.V.L.[N#C[C@H](CCC(N)=O)N[*:1]]}$$$$V2.0) | Inact. (Inact.(<6)) | – |

| Structure (SMILES) | Inact.(<6)/Act.(>=6) (SARS-CoV 3CLpro [1]; [3]) | other results |
| --- | --- | --- |
| CC(=O)Nc1ccc(N(C(=O)Cn2cc(-c3ccccc3)nn2)C(C(=O)NC(C)(C)C)c2ccsc2)cc1 (stereo not shown) [CMP210] | Inact. (Inact.(<6)) | – |
| CC(C)(C)NC(=O)C(c1cccnc1)N(C(=O)c1cnco1)c1ccc(C(C)(C)C)cc1 (stereo not shown) [CMP188] | Inact. (Inact.(<6)) | – |
| O=C1Nc2ccc(S(=O)(=O)N3CCN(CCc4ccccc4)CC3)cc2C1=O [CMP237] | Inact. (Inact.(<6)) | – |
| O=C(Oc1cncc(Cl)c1)c1ccc(-c2ccc(Cl)cc2)o1 [CMP277] | Act. (Act.(>=6)) | – |
| COCCC(=O)Nc1ccc(N(C(=O)Cn2nnc3ccccc32)C(C)c2ccsc2)cc1 (stereo not shown) [CMP252] | Inact. (Inact.(<6)) | – |
| O=C(Oc1cncc(Br)c1)c1ccco1 [CMP276] | Act. (Act.(>=6)) | – |
| O=C(Oc1cncc(Cl)c1)c1cccc([N+](=O)[O-])c1 [CMP275] | Act. (Act.(>=6)) | – |
| C=C1CC[C@H]2[C@](C)(CO)CCC[C@]2(C)[C@H]1CC/C(C)=C\CO [CMP209] | Inact. (Inact.(<6)) | – |
| COc1cc(/C=C/C(=O)/C=C(O)/C=C/c2ccc(O)c(OC)c2)ccc1O [CMP156] | Inact. (Inact.(<6)) | – |
| O=C[C@H](Cc1c[nH]cn1)NC[C@H]1C[C@@H]2CCCC[C@H]2CN1C(=O)c1ccc(Br)cc1 [CMP263] | Inact. (Inact.(<6)) | – |
| COC(=O)c1ccccc1SSc1nc(C(=O)OC)c(C)[nH]1 [CMP265] | Inact. (Inact.(<6)) | – |
| CN1C(=O)C(=O)c2cc(S(=O)(=O)N3CCN(c4ccccn4)CC3)ccc21 [CMP245] | Inact. (Inact.(<6)) | – |
| COC(=O)/C=C/[C@H](C[C@@H]1CCNC1=O)NC(=O)[C@H](CC(C)C)NC(=O)[C@@H](NC(=O)OCc1ccccc1)C(C)C [CMP253] | Inact. (Inact.(<6)) | – |
| CC(C)C[C@H](NC(=O)[C@@H](NC(=O)[C@H](C)NC(=O)OCc1ccccc1)C(C)C)C(=O)N[C@H](C#N)CCC(N)=O [CMP230] | Inact. (Inact.(<6)) | – |
| COc1cccc(C(=O)Oc2cncc(Cl)c2)c1 [CMP171] | Act. (Act.(>=6)) | – |
| Cc1nc(C)c(C(=O)C2=C(O)C(=O)N(CCCN3CCOCC3)C2c2cccc([N+](=O)[O-])c2)s1 (stereo not shown) [CMP289] | Inact. (Inact.(<6)) | – |
| CC1=CC[C@]2(C)CC[C@]3(C)C4=CC=C5C(=CC(=O)C(O)=C5C)[C@]4(C)CC[C@@]3(C)[C@@H]2C1 [CMP200] | Inact. (Inact.(<6)) | – |
| CC(C)(C)NC(=O)C(c1ccnnc1)N(C(=O)c1ccco1)c1ccc(C(C)(C)C)cc1 (stereo not shown) [CMP203] | Inact. (Inact.(<6)) | – |
| COc1ncc(-c2ccc(N(Cc3ccsc3)C(=O)Cn3nnc4ccccc43)cc2)cn1 [CMP222] | Inact. (Inact.(<6)) | – |
| CC1CCN(S(=O)(=O)c2ccc3c(c2)C(=O)C(=O)N3Cc2ccc3ccccc3c2)CC1 [CMP249] | Inact. (Inact.(<6)) | – |
| O=[N+]([O-])c1cc(C(F)(F)F)ccc1S(=O)(=O)c1ccc(Cl)cc1 [CMP287] | Inact. (Inact.(<6)) | – |
